# Measured values: US5037852A, “Cinnamoylamide derivatives” (Ono Pharmaceutical Co., Ltd., priority 1987, dated 1991)
# Biological target: 5α-reductase
# Assay: Inhibitory activity on 5α-reductase in vitro (rat prostate enzyme, [4-C14]-testosterone conversion to dihydrotestosterone)
# Type: biochemical
# Settings: male rat prostate enzyme; [4-C14]-testosterone 1.5 n mol, NADPH; 60 mins at 37° C.; pH 7.4 buffer
# Description: The test was carried out with reference to the method of J. Shimazaki et al [See Endocrinol, Japon., 18, 179 (1971).]
# Male rat's prostate (4 g) was homogenized with its triple volume of 0.1M HEPES buffer (PH 7.4) including 0.25M cane sugar and was centrifuged at 3000 r.p.m. for 10 mins.
# The precipitate was suspended into the buffer solution described above (10 ml), and the suspension was centrifuged at 3000 r.p.m for 5 mins. The resulting precipitated was suspended in the buffer solution (3 ml) described above and was used as a sauce of enzyme.
# A reaction mixture (total volume 0.1 ml) of [4-C^14 ]-testosterone (1.5n mol, 1.5×10^5 cpm), NADPH (0.5 μmol), enzyme solution (0.03 ml) described above and several kinds of concentration of the compounds in the present invention was incubated for 60 mins at 37° C. Enzyme reaction was quenched by addition of a mixture (0.4 ml) of chloroform and methanol (1:2), and the mixture was centrifuged at 2000 r.p.m for 3 mins. The supernatant (50 μl) was spotted on silica gel thin layer plate. The spot on the plate was developed with a mixture of chloroform, methanol and acetic acid (99.2:0.6:0.2). Radioactivity of dihydrotestosteron generated on plate was measured by TLC scanner of radio-autography and inhibitory ratio was calculated.
row,IC50 [µM],Structure (SMILES)
1,0.16,"CCCCCc1cccc(/C(C)=C/C(=O)Nc2ccccc2OCCCC(=O)O)c1 [1 (a), 4-[2-(3-pentyl-β-methylcinnamoylamino)phenoxy]butanoic acid]"
2,0.37,C/C(=C\C(=O)Nc1ccccc1OCCCC(=O)O)c1ccc(CC(C)(C)C)cc1 [1 (b)]
3,0.3,"CCC(CC)Cc1ccc(/C(C)=C/C(=O)Nc2ccccc2OCCCC(=O)O)cc1 [1 (c), 4-[2-{4-(2-ethylbutyl)-β-methylcinnamoylamino}phenoxy]butanoic acid]"
4,0.34,"CCCC(C)Cc1ccc(/C(C)=C/C(=O)Nc2ccccc2OCCCC(=O)O)cc1 (stereo not drawn) [1 (d), 4-[2-{4-(2-methylpentyl)-β-methylcinnamoylamino}phenoxy] butanoic acid]"
5,0.28,"CCCCCOc1ccc(/C(C)=C/C(=O)Nc2ccccc2OCCCC(=O)O)c(F)c1 [1 (e), 4-[2-(2-fluoro-4-pentyloxy-β-methylcinnamoylamino)phenoxy]butanoic acid]"
6,0.43,"CCCCSc1ccc(/C(C)=C/C(=O)Nc2ccccc2OCCCC(=O)O)cc1 [1 (f), 4-[2-(4-butylthio-β-methylcinnamoylamino)phenoxy]butanoic acid]"
7,0.11,"C/C(=C\C(=O)Nc1ccccc1OCCCC(=O)O)c1ccc(CC2CCC2)cc1 [1 (g), 4-[2-(4-cyclobutylmethyl-β-methylcinnamoylamino)phenoxy] butanoic acid]"
8,0.28,"C/C(=C\C(=O)Nc1ccccc1OCCCC(=O)O)c1ccc(CC2CCCCC2)cc1 [1 (h), 4-[2-(4-cyclohexylmethyl-β-methylcinnamoylamino)phenoxy] butanoic acid]"
9,0.32,"C/C(=C\C(=O)Nc1ccccc1OCCCC(=O)O)c1ccc(CCCCc2ccccc2)cc1 [1 (i), 4-[2-{4-(4-phenylbutyl)-β-methylcinnamoylamino)phenoxy] butanoic acid]"
10,0.25,"C/C(=C\C(=O)Nc1ccccc1OCCCC(=O)O)c1ccc(Oc2ccccc2)cc1 [1 (j), 4-[2-(4-phenoxy-β-methylcinnamoylamino)phenoxy]butanoic acid]"
11,0.24,"CCCCCc1cccc(/C=C(\C)C(=O)Nc2ccccc2OCCCC(=O)O)c1 [1 (k), 4-[2-(3-pentyl-α-methylcinnamoylamino)phenoxy]butanoic acid]"
12,0.23,"C/C(=C\c1ccc(CCc2ccccc2)cc1)C(=O)Nc1ccccc1OCCCC(=O)O [1 (l), 4-[2-(4-phenethyl-α-methylcinnamoylamino)phenoxy]butanoic acid]"
13,0.2,"CCCCCc1ccc(/C(C)=C/C(=O)Nc2ccccc2OCCCC(=O)O)cc1 [Example 1, 4-[2-(4-pentyl-β-methylcinnamoylamino)phenoxy]butanoic acid]"
